This passage reports IC50 results from BindingDB's records for doi:10.1021/jm030354b (Millennium Pharmaceuticals, 2004).

Each structure is given as a SMILES string.

In the test the target is Integrin alpha-IIb/beta-3 (Homo sapiens, UniProt P08514+P05106). In words: Inhibition of platelet aggregation induced by 20 uM adenosine 5-diphosphate (ADP) in citreated human platelet rich plasma (h-PRP).
Sequence of Integrin alpha-IIb/beta-3 (P05106 27-788 limits assumed): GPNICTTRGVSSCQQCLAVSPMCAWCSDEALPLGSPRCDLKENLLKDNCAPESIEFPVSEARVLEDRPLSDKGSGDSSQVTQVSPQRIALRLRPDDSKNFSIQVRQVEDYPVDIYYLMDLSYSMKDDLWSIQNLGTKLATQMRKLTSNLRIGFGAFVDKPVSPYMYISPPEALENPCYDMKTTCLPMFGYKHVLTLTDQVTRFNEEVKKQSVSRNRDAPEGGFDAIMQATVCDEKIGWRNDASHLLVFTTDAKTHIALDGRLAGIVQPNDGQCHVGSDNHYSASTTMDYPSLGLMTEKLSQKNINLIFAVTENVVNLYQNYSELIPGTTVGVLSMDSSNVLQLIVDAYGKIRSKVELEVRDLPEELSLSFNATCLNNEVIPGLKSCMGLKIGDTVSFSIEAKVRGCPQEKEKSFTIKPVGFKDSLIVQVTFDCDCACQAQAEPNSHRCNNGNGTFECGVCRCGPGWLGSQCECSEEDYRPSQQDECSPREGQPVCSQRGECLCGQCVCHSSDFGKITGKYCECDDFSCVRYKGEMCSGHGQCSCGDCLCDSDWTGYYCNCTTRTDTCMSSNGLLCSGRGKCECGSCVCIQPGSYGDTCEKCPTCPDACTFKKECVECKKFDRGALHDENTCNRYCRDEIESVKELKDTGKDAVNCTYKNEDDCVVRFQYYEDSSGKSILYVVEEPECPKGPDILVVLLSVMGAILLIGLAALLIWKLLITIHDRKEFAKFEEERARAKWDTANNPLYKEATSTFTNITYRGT
Sequence of Integrin alpha-IIb/beta-3 (P08514 32-887 limits assumed): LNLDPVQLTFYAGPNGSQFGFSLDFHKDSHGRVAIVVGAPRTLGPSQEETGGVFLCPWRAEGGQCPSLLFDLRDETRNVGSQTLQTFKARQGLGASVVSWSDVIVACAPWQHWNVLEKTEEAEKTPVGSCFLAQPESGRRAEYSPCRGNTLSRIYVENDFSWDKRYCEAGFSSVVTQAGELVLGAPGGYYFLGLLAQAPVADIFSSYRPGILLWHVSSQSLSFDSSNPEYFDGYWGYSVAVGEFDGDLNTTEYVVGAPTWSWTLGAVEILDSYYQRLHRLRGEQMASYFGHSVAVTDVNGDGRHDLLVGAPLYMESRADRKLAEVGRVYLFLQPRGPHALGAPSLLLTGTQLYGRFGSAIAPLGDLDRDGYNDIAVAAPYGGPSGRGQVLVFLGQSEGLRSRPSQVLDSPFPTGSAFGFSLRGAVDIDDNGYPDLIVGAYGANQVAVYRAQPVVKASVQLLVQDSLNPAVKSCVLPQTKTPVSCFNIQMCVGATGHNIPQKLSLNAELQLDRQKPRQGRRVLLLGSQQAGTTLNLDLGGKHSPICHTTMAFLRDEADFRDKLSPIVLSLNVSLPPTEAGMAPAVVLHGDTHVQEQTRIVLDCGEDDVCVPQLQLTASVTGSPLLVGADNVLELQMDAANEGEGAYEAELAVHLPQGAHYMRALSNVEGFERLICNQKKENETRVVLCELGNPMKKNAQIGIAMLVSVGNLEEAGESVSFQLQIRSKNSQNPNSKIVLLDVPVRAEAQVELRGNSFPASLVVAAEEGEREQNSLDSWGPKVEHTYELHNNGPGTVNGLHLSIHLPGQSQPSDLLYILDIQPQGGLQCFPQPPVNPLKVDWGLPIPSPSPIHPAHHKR
Sequence of Integrin alpha-IIb/beta-3 (P08514 891-1039 limits assumed): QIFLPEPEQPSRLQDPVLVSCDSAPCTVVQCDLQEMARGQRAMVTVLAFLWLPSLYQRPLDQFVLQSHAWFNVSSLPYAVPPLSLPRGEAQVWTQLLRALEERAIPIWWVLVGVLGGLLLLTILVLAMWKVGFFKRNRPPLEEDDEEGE
`CC(C)(COC(=O)N1CCC2(CC1)CC(=O)N(c1ccc(C(=N)N)cc1)C2)C(=O)O` [2-(4-Carbamimidoyl-phenyl)-3-oxo-2,8-diaza-spiro[4.5]decane-8-carboxylic acid 2-carboxy-2-methyl-propyl ester]: the IC50 is 3.6 µM.
Under `CCCCOC(=O)N[C@@H](CCC(=O)N1CCC2(CC1)CC(=O)N(c1ccc(C(=N)N)cc1)C2=O)C(=O)O` [2-Butoxycarbonylamino-5-[2-(4-carbamimidoyl-phenyl)-1,3-dioxo-2,8-diaza-spiro[4.5]dec-8-yl]-5-oxo-pentanoic acid] stands 0.27 µM.
Under `CCCCOC(=O)N[C@@H](CCC(=O)N1CCC2(CC1)CCN(c1ccc(C(=N)N)cc1)C2=O)C(=O)O` [2-Butoxycarbonylamino-5-[2-(4-carbamimidoyl-phenyl)-1-oxo-2,8-diaza-spiro[4.5]dec-8-yl]-5-oxo-pentanoic acid] stands 0.066 µM.
The molecule `CCCCOC(=O)N[C@@H](CCC(=O)N1CCC2(CC1)C(=O)N(c1ccc(C(=N)N)cc1)C(=O)N2C)C(=O)O` [2-Butoxycarbonylamino-5-[3-(4-carbamimidoyl-phenyl)-1-methyl-2,4-dioxo-1,3,8-triaza-spiro[4.5]dec-8-yl]-5-oxo-pentanoic acid] came in with an IC50 of 0.065 µM.
Under `N=C(N)c1ccc(N2CCC3(CCN(C(=O)CC(=O)O)CC3)C2=O)cc1` [3-[2-(4-Carbamimidoyl-phenyl)-1-oxo-2,8-diaza-spiro[4.5]dec-8-yl]-3-oxo-propionic acid] stands 12.5 µM; under `N=C(N)c1ccc(N2CC3(CCN(C(=O)CC(=O)O)CC3)CC2=O)cc1` [3-[2-(4-Carbamimidoyl-phenyl)-3-oxo-2,8-diaza-spiro[4.5]dec-8-yl]-3-oxo-propionic acid], 7.4 µM; under `N=C(N)c1ccc(N2C(=O)CC3(CCN(C(=O)NCCC(=O)O)CC3)C2=O)cc1` [3-{[2-(4-Carbamimidoyl-phenyl)-1,3-dioxo-2,8-diaza-spiro[4.5]decane-8-carbonyl]-amino}-propionic acid], 0.64 µM.
Under `Cc1ccc(S(=O)(=O)N[C@@H](CNC(=O)N2CCC3(CC2)CCN(c2ccc(C(=N)N)cc2)C3=O)C(=O)O)cc1` [3-{[2-(4-Carbamimidoyl-phenyl)-1-oxo-2,8-diaza-spiro[4.5]decane-8-carbonyl]-amino}-2-(toluene-4-sulfonylamino)-propionic acid] stands 0.066 µM; under `CC(CC(=O)O)NC(=O)N1CCC2(CC1)CCN(c1ccc(C(=N)N)cc1)C2=O` (stereo unspecified) [3-{[2-(4-Carbamimidoyl-phenyl)-1-oxo-2,8-diaza-spiro[4.5]decane-8-carbonyl]-amino}-butyric acid], 0.122 µM; under `N=C(N)c1ccc(N2CC3(CCN(C(=O)NCCC(=O)O)CC3)CC2=O)cc1` [3-{[2-(4-Carbamimidoyl-phenyl)-3-oxo-2,8-diaza-spiro[4.5]decane-8-carbonyl]-amino}-propionic acid], 0.171 µM.
Under `CN1C(=O)N(c2ccc(C(=N)N)cc2)C(=O)C12CCN(C(=O)NC(CC(=O)O)c1ccccc1)CC2` (stereo unspecified) [3-{[3-(4-Carbamimidoyl-phenyl)-1-methyl-2,4-dioxo-1,3,8-triaza-spiro[4.5]decane-8-carbonyl]-amino}-3-phenyl-propionic acid] stands 0.103 µM; under `CN1C(=O)N(c2ccc(C(=N)N)cc2)C(=O)C12CCN(C(=O)NCCC(=O)O)CC2` [3-{[3-(4-Carbamimidoyl-phenyl)-1-methyl-2,4-dioxo-1,3,8-triaza-spiro[4.5]decane-8-carbonyl]-amino}-propionic acid], 0.222 µM; under `CN1C(=O)N(c2ccc(C(=N)N)cc2)CC12CCN(C(=O)NCCC(=O)O)CC2` [3-{[3-(4-Carbamimidoyl-phenyl)-1-methyl-2-oxo-1,3,8-triaza-spiro[4.5]decane-8-carbonyl]-amino}-propionic acid], 0.212 µM.
As for `N=C(N)c1ccc(N2C(=O)NC3(CCN(C(=O)NCCC(=O)O)CC3)C2=O)cc1` [3-{[3-(4-Carbamimidoyl-phenyl)-2,4-dioxo-1,3,8-triaza-spiro[4.5]decane-8-carbonyl]-amino}-propionic acid], inhibition was half-maximal at 0.468 µM (IC50).
Consider `N=C(N)c1ccc(N2CC3(CCN(C(=O)NCCC(=O)O)CC3)NC2=O)cc1` [3-{[3-(4-Carbamimidoyl-phenyl)-2-oxo-1,3,8-triaza-spiro[4.5]decane-8-carbonyl]-amino}-propionic acid], for which the IC50 is 3.77 µM. Against the preceding molecule, the IC50 is about 8.1-fold higher.
`N=C(N)c1ccc(N2CCC3(CCN(C(=O)CCC(=O)O)CC3)C2=O)cc1` [4-[2-(4-Carbamimidoyl-phenyl)-1-oxo-2,8-diaza-spiro[4.5]dec-8-yl]-4-oxo-butyric acid] gave an IC50 of 0.733 µM.
`N=C(N)c1ccc(N2CC3(CCN(C(=O)CCC(=O)O)CC3)CC2=O)cc1` [4-[2-(4-Carbamimidoyl-phenyl)-3-oxo-2,8-diaza-spiro[4.5]dec-8-yl]-4-oxo-butyric acid] registered a half-maximal inhibitory concentration (IC50) of 5.7 µM.
Under `N=C(N)c1ccc(N2C(=O)CC3(CCN(C(=O)CCCC(=O)O)CC3)C2=O)cc1` [5-[2-(4-Carbamimidoyl-phenyl)-1,3-dioxo-2,8-diaza-spiro[4.5]dec-8-yl]-5-oxo-pentanoic acid] stands 0.73 µM; under `Cc1noc(C)c1S(=O)(=O)N[C@@H](CCC(=O)N1CCC2(CC1)CCN(c1ccc(C(=N)N)cc1)C2=O)C(=O)O` [5-[2-(4-Carbamimidoyl-phenyl)-1-oxo-2,8-diaza-spiro[4.5]dec-8-yl]-2-(3,5-dimethyl-isoxazole-4-sulfonylamino)-5-oxo-pentanoic acid], 0.036 µM.
Under `N=C(N)c1ccc(N2CCC3(CCN(C(=O)CC(CC(=O)O)c4ccccc4)CC3)C2=O)cc1` (stereo unspecified) [5-[2-(4-Carbamimidoyl-phenyl)-1-oxo-2,8-diaza-spiro[4.5]dec-8-yl]-5-oxo-3-phenyl-pentanoic acid] stands 0.149 µM; under `N=C(N)c1ccc(N2CCC3(CCN(CCCCC(=O)O)CC3)C2=O)cc1` [5-[2-(4-Carbamimidoyl-phenyl)-1-oxo-2,8-diaza-spiro[4.5]dec-8-yl]-pentanoic acid], 5.18 µM; under `N=C(N)c1ccc(N2CC3(CCN(C(=O)CC(CC(=O)O)c4ccccc4)CC3)CC2=O)cc1` (stereo unspecified) [5-[2-(4-Carbamimidoyl-phenyl)-3-oxo-2,8-diaza-spiro[4.5]dec-8-yl]-5-oxo-3-phenyl-pentanoic acid], 0.1 µM.
Under `Cc1noc(C)c1S(=O)(=O)N[C@@H](CCC(=O)N1CCC2(CC1)C(=O)N(c1ccc(C(=N)N)cc1)C(=O)N2C)C(=O)O` [5-[3-(4-Carbamimidoyl-phenyl)-1-methyl-2,4-dioxo-1,3,8-triaza-spiro[4.5]dec-8-yl]-2-(3,5-dimethyl-isoxazole-4-sulfonylamino)-5-oxo-pentanoic acid] stands 0.118 µM.
`CN1C(=O)N(c2ccc(C(=N)N)cc2)C(=O)C12CCN(C(=O)CC(CC(=O)O)c1ccccc1)CC2` (stereo unspecified) [5-[3-(4-Carbamimidoyl-phenyl)-1-methyl-2,4-dioxo-1,3,8-triaza-spiro[4.5]dec-8-yl]-5-oxo-3-phenyl-pentanoic acid]: the IC50 was 0.12 µM.
Under `CN1C(=O)N(c2ccc(C(=N)N)cc2)C(=O)C12CCN(C(=O)CCCC(=O)O)CC2` [5-[3-(4-Carbamimidoyl-phenyl)-1-methyl-2,4-dioxo-1,3,8-triaza-spiro[4.5]dec-8-yl]-5-oxo-pentanoic acid] stands 0.7 µM; under `CN1C(=O)N(c2ccc(C(=N)N)cc2)C(=O)C12CCN(CCCCC(=O)O)CC2` [5-[3-(4-Carbamimidoyl-phenyl)-1-methyl-2,4-dioxo-1,3,8-triaza-spiro[4.5]dec-8-yl]-pentanoic acid], 7.56 µM.
Take `CN1C(=O)N(c2ccc(C(=N)N)cc2)CC12CCN(C(=O)CC(CC(=O)O)c1ccccc1)CC2` (stereo unspecified) [5-[3-(4-Carbamimidoyl-phenyl)-1-methyl-2-oxo-1,3,8-triaza-spiro[4.5]dec-8-yl]-5-oxo-3-phenyl-pentanoic acid]: half-maximal inhibition (IC50) required 0.08 µM.
Under `CN1C(=O)N(c2ccc(C(=N)N)cc2)CC12CCN(C(=O)CCCC(=O)O)CC2` [5-[3-(4-Carbamimidoyl-phenyl)-1-methyl-2-oxo-1,3,8-triaza-spiro[4.5]dec-8-yl]-5-oxo-pentanoic acid] stands 0.674 µM; under `N=C(N)c1ccc(N2C(=O)NC3(CCN(C(=O)CCCC(=O)O)CC3)C2=O)cc1` [5-[3-(4-Carbamimidoyl-phenyl)-2,4-dioxo-1,3,8-triaza-spiro[4.5]dec-8-yl]-5-oxo-pentanoic acid], 0.586 µM.
For the molecule `N=C(N)c1ccc(N2CC3(CCN(C(=O)CCCC(=O)O)CC3)NC2=O)cc1` [5-[3-(4-Carbamimidoyl-phenyl)-2-oxo-1,3,8-triaza-spiro[4.5]dec-8-yl]-5-oxo-pentanoic acid], half-maximal inhibition (IC50) required 1.02 µM.
Under `CCNC(=N)c1ccc(N2CCC3(CCN(C(=O)CCCC(=O)O)CC3)C2=O)cc1` [5-{2-[4-(N-Ethylcarbamimidoyl)-phenyl]-1-oxo-2,8-diaza-spiro[4.5]dec-8-yl}-5-oxo-pentanoic acid] stands 7.54 µM; under `N=C(N)c1ccc(N2CCC3(CCN(C(=O)CCCCC(=O)O)CC3)C2=O)cc1` [6-[2-(4-Carbamimidoyl-phenyl)-1-oxo-2,8-diaza-spiro[4.5]dec-8-yl]-6-oxo-hexanoic acid], 3.4 µM; under `N=C(N)c1ccc(N2CC3(CCN(C(=O)CCCCC(=O)O)CC3)CC2=O)cc1` [6-[2-(4-Carbamimidoyl-phenyl)-3-oxo-2,8-diaza-spiro[4.5]dec-8-yl]-6-oxo-hexanoic acid], 4.1 µM.
For `C[C@H](CC(=O)O)NC(=O)N1CCC2(CC1)CCN(c1ccc(C(=N)N)cc1)C2=O` [(R)-3-{[2-(4-Carbamimidoyl-phenyl)-1-oxo-2,8-diaza-spiro[4.5]decane-8-carbonyl]-amino}-butyric acid], the IC50 stood at 0.068 µM.
Under `Cc1ccc(S(=O)(=O)N[C@@H](CNC(=O)N2CCC3(CC2)C(=O)N(c2ccc(C(=N)N)cc2)C(=O)N3C)C(=O)O)cc1` [(S)-3-{[3-(4-Carbamimidoyl-phenyl)-1-methyl-2,4-dioxo-1,3,8-triaza-spiro[4.5]decane-8-carbonyl]-amino}-2-(toluene-4-sulfonylamino)-propionic acid] stands 0.059 µM.
Under `C[C@H](CC(=O)O)CC(=O)N1CCC2(CC1)CCN(c1ccc(C(=N)N)cc1)C2=O` [(S)-5-[2-(4-Carbamimidoyl-phenyl)-1-oxo-2,8-diaza-spiro[4.5]dec-8-yl]-3-methyl-5-oxo-pentanoic acid] stands 0.35 µM.

The IC50 is the concentration at which inhibition is half-maximal.
